Measurements: the supplement of paper PMC3974653

System: MTT (mouse pheochromocytoma)
Test: IC50 of cell viability (ATP content)
Conditions: (24 or 48 h)
Summary of the method: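 MTT mouse pheochromocytoma cells (5 µl of 200,000 cells/ml per well, white 1536-well plates, DMEM with 5% FBS and 1% horse serum) were cultured overnight at 37°C, 5% CO2. They then received 23 nl library compound in DMSO by pintool at 8 concentrations (final 0.5 nM to 46 µM) for 24 or 48 hrs. CellTiter-Glo ATP luminescence was read after 15 minutes. Signals were normalised to positive-control (100% inhibition) and DMSO (0%) wells, and IC50 came from a four-parameter logistic fit.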

Structure (SMILES)	IC50 of cell viability [µM]
O.O.O.O.[Na+].[O-]c1ccccc1-c1ccccc1 [2-Phenylphenol sodium salt tetrahydrate technical]	> 46
CC(O)COc1ccccc1 (stereo not given) [2-Propanol, 1-phenoxy-]	> 46
CC(C)O [2-Propanol]	> 46
Oc1ccnc(S)n1 [2-THIOURACIL]	> 46
CC1CC(O)CC(C)(C)C1 (stereo not given) [3,3,5-TRIMETHYLCYCLOHEXANOL]	> 46
Nc1ccncc1N [3,4-DIAMINOPYRIDINE PHOSPHATE]	> 46
N[C@@H](Cc1cc(I)c(O)c(I)c1)C(=O)O [3,5-DIIODO-L-TYROSINE]	> 46
CN1CC[C@@]23C4OC5=C(OC(C)=O)C=CC(=C25)C[C@@H]1C3\C=C/C4OC(C)=O (stereo not given in full) [3,6-Diacetylmorphine]	> 46
C1N2CN3CN1CN(C2)C3 [3-0760 Hexamethylenetetramine]	> 46
OCC(O)COc1ccc(Cl)cc1 (stereo not given) [3-(4-CHLOROPHENOXY)-1,2-PROPANEDIOL]	> 46
N#CCCN.N#CCCN.O=C(O)/C=C/C(=O)O [3-Aminopropionitrile fumarate]	> 46
OCCCBr [3-Bromo-1-propanol]	> 46
OCCCc1ccccc1 [3-Phenyl-1-propanol]	> 46
OCc1cccnc1 [3-Pyridinemethanol]	> 46
C[N+]1(C)C2CCC1CC(OC(=O)c1c[nH]c3ccccc13)C2.[I-] (stereo not given) [3-Tropanylindole-3-carboxylate methiodide]	> 46
CCCn1c(=O)[nH]c(=O)c2[nH]cnc21 [3-n-PROPYLXANTHINE]	> 46
CC(=O)O[C@H]1CC[C@@]2(C)C(=CC[C@H]3[C@@H]4CC[C@H](C(C)=O)[C@@]4(C)CC[C@@H]32)C1 [3BETA-ACETOXY-5-PREGNENE-20-ONE]	> 46
O=[S+]([O-])(c1ccc(Cl)cc1)c1ccc(Cl)cc1 [4,4'-Dichlorodiphenyl sulfone]	> 46

Structure (SMILES)	IC50 of cell viability [µM]
Nc1ccc(Sc2ccc(N)cc2)cc1 [4,4'-Thiodianiline]	> 46
Oc1noc2c1CCNC2 [4,5,6,7-TETRAHYDROISOXAZOLO[5,4-c]PYRIDIN-3-OL]	> 46
CC(C)(C)CC(C)(C)c1ccc(O)cc1 [4-(1,1,3,3-Tetramethylbutyl)phenol]	> 46
O=C(O)CCCOc1ccc(Cl)cc1Cl [4-(2,4-Dichlorophenoxy)butyric acid]	> 46
Nc1ccncc1 [4-AMINOPYRIDINE]	> 46
Nc1ccc(O)c([N+](=O)[O-])c1 [4-Amino-2-nitrophenol]	> 46
Nc1ccc(/N=N/c2ccccc2)cc1 [4-Aminoazobenzene]	> 46
Nc1ccc(O)cc1 [4-Aminophenol]	> 46
CC12CCC3C(CC\C4=C(/O)C(=O)CCC34C)C1CCC2=O (stereo not given) [4-Androsten-4-ol-3,17-dione]	> 46
Nc1ccc(Cl)cc1N [4-Chloro-o-phenylenediamine]	> 46
CN(C)\C1=C(/C)N(C)N(C2=CC=CC=C2)C1=O [4-Dimethylaminoantipyrine]	> 46
CCCCCCCCCC(CC)c1ccc([S+](=O)([O-])O)cc1 (stereo not given) [4-Dodecylbenzenesulfonic acid]	> 46
NCCc1ccc(O)cc1 [4-HYDROXYPHENETHYLAMINE]	> 46
CCCCCCc1ccc(O)cc1O [4-Hexylresorcinol]	> 46
O=P1(N(CCCl)CCCl)NC(OO)CCO1 (stereo not given) [4-Hydroperoxy Cyclophosphamide]	> 46
Cc1cn[nH]c1.Cl [4-Methylpyrazole hydrochloride]	> 46
Nc1ccc([N+](=O)[O-])cc1 [4-Nitroaniline]	> 46
